From patent US20250243238A1, “TETRAZINE AMINO ACIDS AND METHODS FOR THEIR PRODUCTION AND USE” (Oregon State University, priority 2024, published 2025)

Legend:
[1] = Stability and reactivity of incorporated Tet ncAA inside protein on storage in PBS; format: physicochemical
Protocol: The stability and reaction efficiency of incorporated Tet ncAAs in proteins was investigated. […] The SDS-PAGE gel mobility shift assay and mass spectrometry analysis of the incorporated Tet-v2.0, Tet-v3.0 and Tet-v4.0 derivatives confirmed their stability and reactivity with sTCO.
Mobility shift assay. Labeling efficiency and purity of Tet-containing proteins have been verified by reacting with 10 eqv. sTCO-PEG5k under PBS (pH 7.1) for 10 minutes at room temperature and examined the mobility shift of the reacted proteins in SDS-PAGE gel. The mobility shift assay helps to provide an insight into the reaction efficiency of Tet-containing proteins and also quantifies the amount of reactive Tet ncAA present in protein and measures if there is any misincorporation or Tet-degradation by showing unreactive protein.
In addition, to assess their stability and reactivity more rigorously, GFP-Tet-v4.0 (Ph, 3-Me-Ph, 3-F-Ph and Pyr) were incubated at 4° C. and room temperature (RT) under 50 mM PBS (pH 7.1) with 100 mM imidazole and studied their reaction efficiency for another 8 days.
Mass spectrometry. The site-specific labelling reaction between Tet ncAA and sTCO is quantitative inside protein was confirmed by ESI-Q-TOF mass spectrometry. […] No other peak has been detected for sTCO exposed samples which verified that the GFP-Tet reacts with sTCO quantitatively without involving side reactions.

[2] = target: T1, Mb-PylRS/tRNACUA pairs D4 and E1 (Methanosarcina barkeri, UniProt Q6WRH6, C313A/N311S/V366H/W382I); experiment: Efficiency, fidelity and permissivity of evolved synthetases: GFP150-TAG expression in E. coli with Tet ncAA; format: cell-based; settings: synthetase D4 only
T1 construct: D4-Py1RS (Protein); expressed in transfected cells; host or cells: E. coli DH10b carrying pBK-RS and pALS-GFP150TAG
Protocol: (§1) To incorporate Tet ncAAs in the protein, a GCE machinery was developed to encode Tet ncAAs into the protein in response to TAG codon suppression with evolving orthogonal aaRS/tRNAcuA pair. The permissibility of developed synthetases for structurally parallel Tet ncAA derivatives was evaluated in 25 mL scale in presence and absence of 0.5 mM Tet ncAA.
(§2) Efficiency and fidelity of selected synthetases. The efficiency and fidelity of the selected synthetases were measured by expressing GFP150 in 50 mL AIM with and without 0.5 mM Tet4-Ph. DH10b cells containing the selected pBK-RSs and the pALS-GFP150TAG plasmids, were used to inoculate 5 mL of NIM containing kanamycin (50 μg/mL) and tetracycline (25 μg/mL). Cells were grown for 16 hours at 37° C. shaking at 250 rpm. The saturated NIM cultures (500 μL) were used to inoculate in 50 mL AIM containing kanamycin (50 μg/mL) and tetracycline (25 μg/mL) and measured fluorescence using a Turner Biosystems Picofluor fluorimeter diluting 100 μL cell culture in 1.9 mL water. Two synthetases D4 and E1 for Tet4-Ph were identified to have good efficiency and fidelity. The selected two synthetases are differ at two mutation sites C313A/G and W382I/V respectively.
(§3) Permissivity screen for Tet4-Pyr with selected synthetases. To assess if the top four selected RSs for Tet4-Ph could incorporate Tet4-Pyr, expressions of GFP150TAG with Tet4-Pyr were evaluated. Using the above efficiency and fidelity method, 5 mL AIM separate cultures were inoculated with cells containing the pBK-RSs/pALS-GFP150. Tet4-Pyr (0.5 mM) was added to cultures from a 50 mM DMF ncAA stock solution. Cultures were grown for 30-36 hours at 37° C. and 250 rpm. Fluorescence of the culture was measured by diluting 100 μL cell culture in 1.9 mL water.
(§4) Expression and purification of GFP150-TAG-Tet4. […] Protein concentration was determined by measuring absorbance at 280 nm. Protein purity was assessed using SDS-PAGE.

[3] = target: T2, Pyl-tRNA/RS pairs (Tet4 E1 and D4 synthetases) (Methanosarcina barkeri, UniProt Q6WRH6, C313A/N311S/V366H/W382I); experiment: Tet4 ncAA incorporation into GFP150-TAG in HEK293T cells, suppression efficiency by flow cytometry; format: cell-based; settings: 100 μM ncAA, synthetase D4
T2 construct: D4-Py1RS (Protein); expressed in transfected cells; host or cells: HEK293T
Protocol: (§5) To access newly developed Tet4.0 derivatives into mammalian cells, an optimized eukaryotic expression system was used and their stability and reaction efficiency were validated inside living cells. The permissibility of Tet-v4.0 derivatives into eukaryotic protein was tested with an evolved synthetase Tet-v4.0 E1 and D4 co-transfected with the reporter plasmid pAcBac1-sfGFP-TAG150 into the HEK293T cells and supplemented with 100 μM each of five different Tet-v4.0 (Ph, 3-Me-Ph, 3-F-Ph, 4-F-Ph, and Pyr) derivatives side-by-side.
(§6) The compatibility of the Tet4 system with mammalian cells was explored. Specifically, the ability of Tet4 to be incorporated into proteins expressed in HEK293T cells, an immortalized human embryonic kidney cell line, was explored. […] Genes for Tet4 E1 and D4 synthetases were cloned with a terminal nuclear export sequence into the eukaryotic expression Pyl-tRNA/RS vector pAcBac1. Pyl-tRNA/RS pairs were then co-transfected with pAcBac1-GFP150-TAG into HEK293T cells and incubated either in the absence of ncAA, or with various concentrations of Tet4 ncAAs, and suppression efficiencies were assessed using flow cytometry. Tet4-Ph and Tet4-Pyr were incorporated into GFP about 50% as well as the Tet-v3.0 system, Tet3-Bu. As with Tet4 incorporation into E. coli expressed proteins, the highest suppression efficiencies in HEK293T cells were obtained with Mb-PylRS synthetase E1 and Tet4-Ph ncAA. Selective incorporation and reactivity of GFP150-Tet4 proteins were verified in whole-cell HEK293T lysates using sTCO-PEG5k-induced SDS-PAGE mobility shifts, and in purified proteins by mass spectrometry.
(§7) Transfection of HEK293T cells and imaging method. HEK293T cells were plated in a 24-well plate at the density of 40% confluency. Cells were transfected the next day using jetPRIME reagent according to the manufacturer's protocol. Briefly, 67 ng of pAcBac1-NES-D4-RS or pAcBac1-NES-E1-RS and 555 ng of pAcBac1-GFP-150TAG plasmid DNA were diluted with 50 μL of jetPRIME buffer. […] GFP expression was verified by fluorescence microscopy on EVOS FL imaging system.

[4] = tested on: Pyl-tRNA/RS pairs (Tet4 E1 and D4 synthetases); experiment: as above; format: cell-based, Methanosarcina barkeri; settings: flow cytometry
Protocol: as §5, §6, §7

[5] = tested on: Mb-PylRS/tRNACUA pairs D4 and E1; experiment: Efficiency, fidelity and permissivity of evolved synthetases: GFP150-TAG expression in E. coli with Tet ncAA; format: cell-based, Methanosarcina barkeri; settings: synthetases D4 and E1
Protocol: as §1, §2, §3, §4

T1 sequence (Q6WRH6 whole entry N311S/C313A/V366H/W382I): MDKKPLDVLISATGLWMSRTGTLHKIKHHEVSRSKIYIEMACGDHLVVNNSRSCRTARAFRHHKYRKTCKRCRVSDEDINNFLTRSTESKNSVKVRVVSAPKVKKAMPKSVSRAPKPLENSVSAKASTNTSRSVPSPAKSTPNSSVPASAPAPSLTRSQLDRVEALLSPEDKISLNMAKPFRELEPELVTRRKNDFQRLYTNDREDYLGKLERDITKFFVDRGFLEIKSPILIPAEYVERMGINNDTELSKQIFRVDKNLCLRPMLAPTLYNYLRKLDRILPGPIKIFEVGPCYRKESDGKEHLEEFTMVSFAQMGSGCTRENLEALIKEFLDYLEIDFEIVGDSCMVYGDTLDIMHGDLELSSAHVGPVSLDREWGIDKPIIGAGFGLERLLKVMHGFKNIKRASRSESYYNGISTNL
T2 sequence (Q6WRH6 whole entry N311S/C313A/V366H/W382I): as above

Row | SMILES | stability and reactivity inside protein ([1]; GFP-Tet protein, PBS pH 7.1, room temperature) | yield of GFP150-TAG expressed with the ncAA [2] | yield of GFP150-TAG expressed with the ncAA ([2]; listed as Tet-v4.0Pyr) [mg/L] | incorporation into GFP-TAG150 [3] | incorporation into GFP relative to the Tet-v3.0 system, Tet3-Bu [4] | stability inside protein ([1]; PBS pH 7.1, both 4° C. and RT, after 8 days) | yield of GFP150-TAG expressed with the ncAA [5] [mg/L]
1 | N[C@@H](Cc1nnc(-c2ccccn2)nn1)C(=O)O [Tet4-Pyr, (S)-2-amino-3-(6-(pyridin-2-yl)-1,2,4,5-tetrazin-3-yl)propanoic acid] | degraded with time | about 40 mg/L | 35 to 40 | relatively high yield | about 50% |  | 
2 | N[C@@H](Cc1nnc(-c2ccccc2)nn1)C(=O)O [Tet4-Ph, (S)-2-amino-3-(6-phenyl-1,2,4,5-tetrazin-3-yl)propanoic acid] |  |  |  |  | about 50% | highly stable | 55 to 60
